Values quoted from earlier work, collected in patent US12247053B2 (priority 2018, dated 2025).

System: 2009 swine flu influenza A(H1N1)

Compound	susceptibility of the virus
CC(=O)N[C@H]1[C@H]([C@H](O)[C@H](O)CO)OC(C(=O)O)=C[C@@H]1N=C(N)N [zanamivir]	susceptible
CCOC(=O)C1=C[C@@H](OC(CC)CC)[C@H](NC(C)=O)[C@@H](N)C1 [oseltamivir]	susceptible
CC(N)C12CC3CC(CC(C3)C1)C2 (stereo not shown) [rimantadine]	resistant
NC12CC3CC(CC(C3)C1)C2 [amantadine]	resistant
